Target: T1, SHP2 protein (Homo sapiens, UniProt Q06124)
T1 sequence (Q06124 1-593): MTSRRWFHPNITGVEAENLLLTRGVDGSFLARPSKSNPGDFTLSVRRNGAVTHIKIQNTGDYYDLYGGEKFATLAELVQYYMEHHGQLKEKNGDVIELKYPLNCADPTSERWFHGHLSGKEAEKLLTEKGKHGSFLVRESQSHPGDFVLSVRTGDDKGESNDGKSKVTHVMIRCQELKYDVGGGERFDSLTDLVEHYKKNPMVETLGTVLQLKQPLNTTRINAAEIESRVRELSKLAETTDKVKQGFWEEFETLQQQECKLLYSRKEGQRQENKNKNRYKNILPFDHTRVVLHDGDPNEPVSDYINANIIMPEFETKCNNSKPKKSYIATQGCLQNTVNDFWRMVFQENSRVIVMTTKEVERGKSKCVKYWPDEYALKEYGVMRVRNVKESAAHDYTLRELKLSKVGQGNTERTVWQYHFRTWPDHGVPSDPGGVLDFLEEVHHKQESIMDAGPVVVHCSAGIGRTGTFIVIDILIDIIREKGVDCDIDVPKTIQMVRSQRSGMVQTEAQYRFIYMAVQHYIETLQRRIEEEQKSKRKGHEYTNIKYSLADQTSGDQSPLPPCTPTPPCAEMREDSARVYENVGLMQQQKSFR
Assay: Measurement of SHP2 protein degradation in NCI-H358 cells (western blotting)
Format: cell-based
Parameters: endogenous in cells; host or cells: NCI-H358
Details: harvested after 24 hours
Method: H358 cells were treated with the synthesized Example compounds, and the amount of SHP2 protein present in the cells was measured using western blotting detection. The protocol for the experiment using H358 cells is as follows.
[Culture]H358 cells were resuspended in RPMI1640 with 25 mM HEPES (Hyclone, SH30255.01), 10% FBS (Hyclone, SV30207.02), 1% Penicillin-streptomycin (Welgene, LS 202-02) media, seeded at 3×10^5/mL in 12-well plates (1 mL each), and cultured for 24 hours.
[Compound treatment] Before compound treatment, the media was changed to 1 mL media, and then the 12-well plate was treated as follows. The 10 mM stock dissolved in DMSO was serially diluted 1/100 or 1/10 with the media, and the compound was treated to the cells at a final concentration of 0.001, 0.01, and 0.1 μM, and harvested after 24 hours. For the negative control group, DMSO diluted 1/1000 in the media was added (1 μL DMSO+999 μL media).
[Harvest]24 hours after compound treatment, each well was scraped with a cell lifter (SPL, 90040), pipetted with a 1 mL pipette, collected in a 1.5 mL microtube, and centrifuged (500 g, 5 min, 4° C.). The supernatant was removed, washed with PBS, and centrifuged again (500 g, 5 min, 4° C.). Afterwards, the supernatant was removed to prepare a pellet.
[Cell lysis and sample preparation] Lysis buffer was prepared as follows. RIPA buffer (Biosesang, RC2038-050-00)+0.5 mM PMSF (SIGMA, P7626)+1× Protease/Phosphatase Inhibitor (Cell signaling, 5872S) were added at 30 μL per tube, vortexed, and incubated on ice for 30 minutes. Afterwards, sonication was performed (10 sec pulse, 30 sec rest, 5 cycles, 70% amplification) and centrifugation was performed (15,000 g, 15 min, 4° C.), and only the supernatant was transferred to a microtube. A 96-well plate was diluted to 1/4 with 7.5 μL of RIPA buffer and 2.5 μL of sample, and 200 μL each was added after mixing A and B of the BCA Protein Assay Kit (iNtRON, 21071) in a ratio of 50:1. The plate was incubated at 37° C. for 30 minutes and left at room temperature for 10 minutes. After shaking for 10 seconds with a SYNERGY H1 microplate reader from BioTek, the absorbance was measured at 562 nm. The protein was quantified using the measured value to make a sample, which was then incubated at 70° C. for 10 minutes. The sample buffer used here was a mixture of NuPAGE or Bolt 4× sample buffer (Invitrogen) and each 10× sample reducing agent depending on the gel to be used, and RIPA buffer was used for protein dilution.
[Western blotting detection] Equal amounts of samples were loaded onto NuPAGE or Bolt Bis-tris 4-12% gradient gel and run (200 V, 35 min). This was transferred to […] NC membrane using Trans-blot Turbo (BIO-RAD) (1.3 A constant, 25 V limit, 15 min), and blocked with 5% skim milk/0.2% TBST for 45 min at room temperature. Anti-SHPTP2 Mouse (1:1,000 in 5% skim milk/0.2% TBST, size: 70 kDa, Santa cruz sc-7384) and Anti-GAPDH Rabbit (1:2,000 in 5% skim milk or 5% BSA/0.2% TBST, size: 37 kDa, CST #2118) were added and incubated overnight at 4° C. After washing three times with 0.2% TBST washing buffer for 5 minutes each, secondary antibodies Anti-Mouse IgG (1:5,000 in 5% skim milk/0.2% TBST, CST) and IRDye® 680RD Goat anti-Rabbit IgG Secondary Antibody (1:10,000 in 5% skim milk/0.2% TBST, LI-COR 926-68071) were added, and incubated on a rocker at room temperature for 45 minutes. The resultants were washed five times with 0.2% TBST washing buffer for 5 minutes each, and detected using LI-COR's Odyssey. GAPDH was detected with a 700 nm channel, and SHPTP2 was detected using SuperSignal West Pico PLUS Chemiluminescent Substrate.

Row | SHP2% degradation (0.01 μM) [%] | SHP2% degradation (0.1 μM) [%] | SMILES
1 | −34.6 | 50.6 | CC(=O)N[C@H](C(=O)N1C[C@H](O)C[C@H]1C(=O)NCc1ccc(-c2scnc2C)cc1O[C@H]1CC[C@H](C(=O)N2CCC(c3nccc(Sc4cnc(N5CCC(C)(CN)CC5)cn4)c3Cl)CC2)CC1)C(C)(C)C [Example 47, (2S,4R)-1-((S)-2-acetamido-3,3-dimethylbutanoyl)-N-(2-(((1r,4S)-4-(4-(4-((5-(4-(aminomethyl)-4-methylpiperidin-1-yl)pyrazin-2-yl)thio)-3-chloropyridin-2-yl)piperidine-1-carbonyl)cyclohexyl)oxy)-4-(4-methylthiazol-5-yl)benzyl)-4-hydroxypyrrolidine-2-carboxamide]
2 | 94.2 | 97.0 | Cc1ncsc1-c1ccc(CNC(=O)[C@@H]2C[C@@H](O)CN2C(=O)[C@@H](NC(=O)C2(F)CC2)C(C)(C)C)c(O[C@H]2CC[C@H](C(=O)N3CCC(Nc4nccc(Sc5cnc(N6CCC7(CC6)CO[C@@H](C)[C@H]7N)cn5)c4Cl)CC3)CC2)c1 [Example 25, (2S,4R)—N-(2-(((1R,4S)-4-(4-((4-((5-((3S,4S)-4-amino-3-methyl-2-oxa-8-azaspiro[4.5]decan-8-yl)pyrazin-2-yl)thio)-3-chloropyridin-2-yl)amino)piperidine-1-carbonyl)cyclohexyl)oxy)-4-(4-methylthiazol-5-yl)benzyl)-1-((S)-2-(1-fluorocyclopropane-1-carboxamido)-3,3-dimethylbutanoyl)-4-hydroxypyrrolidine-2-carboxamide]
3 | 95.5 | 100.0 | Cc1cc(C(C(=O)N2C[C@H](O)C[C@H]2C(=O)NCc2ccc(-c3scnc3C)cc2OC2CCN(C(=O)C3CCN(c4nccc(Sc5cnc(N6CCC(C)(N)CC6)cn5)c4Cl)CC3)CC2)C(C)C)on1 (stereo partly drawn) [Example 94, (2S,4R)—N-(2-((1-(1-(4-((5-(4-amino-4-methylpiperidin-1-yl)pyrazin-2-yl)thio)-3-chloropyridin-2-yl)piperidine-4-carbonyl)piperidin-4-yl)oxy)-4-(4-methylthiazol-5-yl)benzyl)-4-hydroxy-1-(3-methyl-2-(3-methylisoxazol-5-yl)butanoyl)pyrrolidine-2-carboxamide]
4 | 97.0 | 99.9 | Cc1ncsc1-c1ccc(CNC(=O)[C@@H]2C[C@@H](O)CN2C(=O)[C@@H](NC(=O)CC#N)C(C)(C)C)c(OC2CCN(C(=O)C3CCN(c4nccc(Sc5cnc(N6CCC7(CC6)CO[C@@H](C)[C@H]7N)c(CO)n5)c4Cl)CC3)CC2)c1 [Example 88, (2S,4R)—N-(2-((1-(1-(4-((5-((3S,4S)-4-amino-3-methyl-2-oxa-8-azaspiro[4.5]decan-8-yl)-6-(hydroxymethyl)pyrazin-2-yl)thio)-3-chloropyridin-2-yl)piperidine-4-carbonyl)piperidin-4-yl)oxy)-4-(4-methylthiazol-5-yl)benzyl)-1-((S)-2-(2-cyanoacetamido)-3,3-dimethylbutanoyl)-4-hydroxypyrrolidine-2-carboxamide]
5 | 95.0 | 99.7 | Cc1cc(C(C(=O)N2C[C@H](O)C[C@H]2C(=O)NCc2ccc(-c3scnc3C)cc2OC2CCN(C(=O)C3CCN(c4nccc(Sc5cnc(N6CCC(C)(N)CC6)c(CO)n5)c4Cl)CC3)CC2)C(C)C)on1 (stereo partly drawn) [Example 97, (2S,4R)—N-(2-((1-(1-(4-((5-(4-amino-4-methylpiperidin-1-yl)-6-(hydroxymethyl)pyrazin-2-yl)thio)-3-chloropyridin-2-yl)piperidine-4-carbonyl)piperidin-4-yl)oxy)-4-(4-methylthiazol-5-yl)benzyl)-4-hydroxy-1-(3-methyl-2-(3-methylisoxazol-5-yl)butanoyl)pyrrolidine-2-carboxamide]
6 | 70.5 | 99.2 | CC(=O)N[C@H](C(=O)N1C[C@H](O)C[C@H]1C(=O)NCc1ccc(-c2scnc2C)cc1OC1CCN(C(=O)C2CCN(c3nccc(Sc4cnc(N5CCC(C)(CN)CC5)cn4)c3Cl)CC2)CC1)C(C)C [Example 90, (2S,4R)-1-(acetyl-L-valyl)-N-(2-((1-(1-(4-((5-(4-(aminomethyl)-4-methylpiperidin-1-yl)pyrazin-2-yl)thio)-3-chloropyridin-2-yl)piperidine-4-carbonyl)piperidin-4-yl)oxy)-4-(4-methylthiazol-5-yl)benzyl)-4-hydroxypyrrolidine-2-carboxamide]
7 | 99.2 | 99.7 | Cc1cc(C(C(=O)N2C[C@H](O)C[C@H]2C(=O)NCc2ccc(-c3scnc3C)cc2OC2CCN(C(=O)C3CCN(c4nccc(Sc5cnc(N6CCC7(CC6)CO[C@@H](C)[C@H]7N)cn5)c4Cl)CC3)CC2)C(C)C)on1 (stereo partly drawn) [Example 95, (2S,4R)—N-(2-((1-(1-(4-((5-((3S,4S)-4-amino-3-methyl-2-oxa-8-azaspiro[4.5]decan-8-yl)pyrazin-2-yl)thio)-3-chloropyridin-2-yl)piperidine-4-carbonyl)piperidin-4-yl)oxy)-4-(4-methylthiazol-5-yl)benzyl)-4-hydroxy-1-(3-methyl-2-(3-methylisoxazol-5-yl)butanoyl)pyrrolidine-2-carboxamide]
8 | 99.9 | 99.7 | Cc1ncsc1-c1ccc(CNC(=O)[C@@H]2C[C@@H](O)CN2C(=O)[C@H](C(C)C)n2cc(C3CC3)nn2)c(OC2CCN(C(=O)C3CCN(c4nccc(Sc5cnc(N6CCC7(CC6)CO[C@@H](C)[C@H]7N)cn5)c4Cl)CC3)CC2)c1 [Example 103, (2S,4R)—N-(2-((1-(1-(4-((5-((3S,4S)-4-amino-3-methyl-2-oxa-8-azaspiro[4.5]decan-8-yl)pyrazin-2-yl)thio)-3-chloropyridin-2-yl)piperidine-4-carbonyl)piperidin-4-yl)oxy)-4-(4-methylthiazol-5-yl)benzyl)-1-((S)-2-(4-cyclopropyl-1H-1,2,3-triazol-1-yl)-3-methylbutanoyl)-4-hydroxypyrrolidine-2-carboxamide]
9 | 99.1 | 99.6 | Cc1cn([C@H](C(=O)N2C[C@H](O)C[C@H]2C(=O)NCc2ccc(-c3scnc3C)cc2OC2CCN(C(=O)C3CCN(c4nccc(Sc5cnc(N6CCC(C)(CN)CC6)c(CO)n5)c4Cl)CC3)CC2)C(C)C)nn1 [Example 108, (2S,4R)—N-(2-((1-(1-(4-((5-(4-(aminomethyl)-4-methylpiperidin-1-yl)-6-(hydroxymethyl)pyrazin-2-yl)thio)-3-chloropyridin-2-yl)piperidine-4-carbonyl)piperidin-4-yl)oxy)-4-(4-methylthiazol-5-yl)benzyl)-4-hydroxy-1-((S)-3-methyl-2-(4-methyl-1H-1,2,3-triazol-1-yl)butanoyl)pyrrolidine-2-carboxamide]

Source: patent publication US20260144788A1, “COMPOUND FOR SHP2 PROTEIN DEGRADATION AND MEDICAL USES THEREOF” (UBIX THERAPEUTICS, INC., priority 2022, published 2026)
